How the values were obtained:
[1] = system: interleukin 8 release by human HaCaT keratinocytes; details: 24 h with PUFA, then PMA/A23187 for 6 h (FIG. 3)
Experimental: The anti-inflammatory potential of the PUFAs was tested on human keratinocytes (HaCaT) stimulated by PMA/A23187. The changes induced by these PUFAs are evaluated on the production of eicosanoids and an inflammatory cytokine, interleukin 8, during an inflammatory process triggered by PMA/A23187. HaCaT cells are incubated on 96-well plates for 24 h in the presence of PUFAs, rinsed and then stimulated by PMA/A23187. The supernatants are recovered after 6 h of stimulation and IL-8 is quantified using the OptEIA™ ELISA kit (BD Pharmingen).

[2] = system: release of arachidonic acid and eicosanoids by HaCaT keratinocytes; assay: Arachidonic acid metabolism in [3H]AA-labeled HaCaT keratinocytes stimulated by PMA/A23187; assay type: cell-based, human; details: HaCaT pretreated with PUFA 24 h, 500 nM PMA and 1 μM A23187 for 5 hours (FIGS. 4A-4C)
Experimental: HaCaT keratinocytes were incubated in 24-well plates in the presence of 1 μCi [^3H]AA for 18 hours under an atmosphere of 5% CO2. To test the capacity of
PUFAs to modulate the inflammatory response of keratinocytes, [^3H]-labeled HaCaT cells are pretreated with PUFAs for 24 hours, rinsed and then stimulated by 500 nM PMA and 1 μM A23187 for 5 hours. [^3H]AA and metabolites released by the HaCaT cells in the culture medium are extracted by column chromatography. The eluate is evaporated under N2. The dry residue is taken up in methanol and deposited on thin-layer silica plates activated beforehand for 1 hour at 100° C. The developing solvent is the organic phase of the mixture ethyl acetate/water/isooctane/acetic acid (110:100:50:20, v/v). [^3H]AA and metabolites (6-keto-prostaglandin F1α, 6k-PGF1α; prostaglandin (PG) FαE2D2; thromboxane (TX) B2, leukotrienes (LT) B4, C4, D4) are identified by a Berthold TLC scanner.

P. acnes strain = assay: Antibacterial activity of the diols, MIC micromethod in liquid medium, P. acnes strain; assay type: cell-based, Propionibacterium acnes
Experimental: Tests were carried out with eight microbial strains using the dilution method described below.
Minimum inhibitory concentrations (MICs) are determined using a micromethod in liquid medium. Successive 1/2 dilutions of the test products in culture medium (Trypcase Soy Broth) are carried out in 96-well microplates in a final volume of 0.1 ml. The wells are inoculated with 0.01 ml of the bacterial suspensions titrated at roughly 1×10^7 CFU/ml. The microplates are incubated in optimal growth conditions and the MIC is read visually.
The columns labeled “BS” represent the bacteriostatic activity and the columns labeled “BC” represent the bactericidal activity of the diols (1% corresponds to a concentration of 10 mg/ml).

[3] = system: Staphylococcus aureus ATCC6538; assay: Kinetics of antibacterial activity (residual CFU count), Staphylococcus aureus; assay type: cell-based; details: S. aureus
Text: (§1) The kinetics of the antibacterial activity of 1,2-octanediol were studied by evaluating the lethality of the bacteria over time by counting residual colony-forming units (CFUs) after contact of the test solution with the bacterial suspension.
(§2) The bacterial strains used are: Staphylococcus aureus ATCC6538 and Propionibacterium acnes ATCC6919. The culture medium used for Staphylococcus aureus ATCC6538 is Trypcase Soy Agar whereas the culture medium used for Propionibacterium acnes ATCC6919 is Schaedler agar. Stock solutions containing 1% and 0.5% 1,2-octanediol are prepared extemporaneously in 1% Polysorbate 20 (qsp WFI) and then adjusted to pH 7 with 0.1 N NaOH solution.
(§3) A volume of 5 ml of each stock solution is inoculated with 50 μl bacterial suspension titrated at roughly 1×10^8 CFU/ml.
(§4) After each time of contact (contact times tested: 5 min, 15 min, 30 min and 60 min), residual bacteria are counted by taking a 1 ml aliquot neutralized by 9 ml Trypcase Soy Broth and 10% Polysorbate 80.
(§5) Counting is carried out by adding 1 ml neutralized mixture and four 1/10 serial dilutions to the corresponding agar plates.
(§6) The agar plates are incubated at 36° C.±1° C. in aerobic atmosphere for S. aureus and anaerobic atmosphere for P. acnes (Generbag anaer, Biomerieux) for 72 hours and then the CFUs are counted.
(§7) • with R meaning “reduction”. It refers to the ratio between the number of inoculated bacteria and the number of residual bacteria after contact of the test solution with the bacterial suspension.

[4] = system: Propionibacterium acnes ATCC6919; assay: Kinetics of antibacterial activity (residual CFU count), Propionibacterium acnes; assay type: cell-based; details: for Log R: P. acnes
Text: as §1, §2, §3, §4, §5, §6, §7

CCCCC/C=C\C/C=C\C/C=C\CCCCC(=O)O [γ-linolenic acid]
effect on IL-8 secretion of stimulated keratinocytes [1]: inhibitory effect

CC/C=C\C/C=C\C/C=C\CCCCCCCC(=O)O [α-linolenic acid]
effect on IL-8 secretion of stimulated keratinocytes [1]: inhibitory effect
release of arachidonic acid [2]: significantly inhibits
release of cyclooxygenated metabolites [2]: significantly inhibits
release of lipoxygenated metabolites [2]: significantly inhibits

CCCCCCC(O)CCO (stereo not drawn) [1,3-nonanediol]
bactericidal effect concentration (BC) (P. acnes strain): 3.12 mg/mL
bacteriostatic effect concentration (BS) (P. acnes strain): 1.56 mg/mL

CC/C=C\C/C=C\C/C=C\C/C=C\CCCCC(=O)O [stearidonic acid]
release of arachidonic acid [2]: significantly inhibits
release of cyclooxygenated metabolites [2]: significantly inhibits
release of lipoxygenated metabolites [2]: significantly inhibits

CCCCC/C=C\C/C=C\CCCCCCCC(=O)O [linoleic acid]
release of arachidonic acid [2]: significantly inhibits
release of cyclooxygenated metabolites [2]: significantly inhibits
release of lipoxygenated metabolites [2]: significantly inhibits

CCCCCCC(O)CO (stereo not drawn) [1,2-octanediol]
Log R ([3]; 0.5%, pH 7, contact 5 min): 0.4
Log R ([3]; 0.5%, pH 7, contact 15 min): 0.1
Log R ([3]; 0.5%, pH 7, contact 30 min): 0.2
Log R ([3]; 0.5%, pH 7, contact 60 min): 0.5
Log R ([3]; 1%, pH 7, contact 5 min): >5.3
Log R ([3]; 1%, pH 7, contact 15 min): >5.3
Log R ([3]; 1%, pH 7, contact 30 min): >5.3
Log R ([3]; 1%, pH 7, contact 60 min): >5.3
decrease of the population of P. acnes ([4]; 0.5%, physiological pH, one hour of contact): greater than 99.9%
Log R ([4]; 0.5%, pH 7, contact 5 min): 0.2
Log R ([4]; 0.5%, pH 7, contact 15 min): 0.7
Log R ([4]; 0.5%, pH 7, contact 30 min): 1.8
Log R ([4]; 0.5%, pH 7, contact 60 min): 3
Log R ([4]; 1%, pH 7, contact 5 min): >5
Log R ([4]; 1%, pH 7, contact 15 min): >5
Log R ([4]; 1%, pH 7, contact 30 min): >5
Log R ([4]; 1%, pH 7, contact 60 min): >5

From US8623916B2, “Polyunsaturated fatty acid and diol ester as an anti-acne agent” (Pierre Fabre Dermo-Cosmetique, priority 2008, dated 2014)
